From ChEMBL document CHEMBL1201862, “PubChem BioAssay data set” (2004) come the findings set out here.

The EC50 is the midpoint of the concentration-response curve. As a reminder, the IC50 is the point on the concentration scale where inhibition reaches its midpoint. By AC50 is commonly meant the midpoint of the concentration-response curve, whichever way the signal moves.

Structures are written as SMILES. The source made the active and inactive calls.

For test [1], the target named is T1, Eukaryotic translation initiation factor 2-alpha kinase 3 (Homo sapiens, UniProt Q9NZJ5).
T1 sequence (Q9NZJ5 whole entry): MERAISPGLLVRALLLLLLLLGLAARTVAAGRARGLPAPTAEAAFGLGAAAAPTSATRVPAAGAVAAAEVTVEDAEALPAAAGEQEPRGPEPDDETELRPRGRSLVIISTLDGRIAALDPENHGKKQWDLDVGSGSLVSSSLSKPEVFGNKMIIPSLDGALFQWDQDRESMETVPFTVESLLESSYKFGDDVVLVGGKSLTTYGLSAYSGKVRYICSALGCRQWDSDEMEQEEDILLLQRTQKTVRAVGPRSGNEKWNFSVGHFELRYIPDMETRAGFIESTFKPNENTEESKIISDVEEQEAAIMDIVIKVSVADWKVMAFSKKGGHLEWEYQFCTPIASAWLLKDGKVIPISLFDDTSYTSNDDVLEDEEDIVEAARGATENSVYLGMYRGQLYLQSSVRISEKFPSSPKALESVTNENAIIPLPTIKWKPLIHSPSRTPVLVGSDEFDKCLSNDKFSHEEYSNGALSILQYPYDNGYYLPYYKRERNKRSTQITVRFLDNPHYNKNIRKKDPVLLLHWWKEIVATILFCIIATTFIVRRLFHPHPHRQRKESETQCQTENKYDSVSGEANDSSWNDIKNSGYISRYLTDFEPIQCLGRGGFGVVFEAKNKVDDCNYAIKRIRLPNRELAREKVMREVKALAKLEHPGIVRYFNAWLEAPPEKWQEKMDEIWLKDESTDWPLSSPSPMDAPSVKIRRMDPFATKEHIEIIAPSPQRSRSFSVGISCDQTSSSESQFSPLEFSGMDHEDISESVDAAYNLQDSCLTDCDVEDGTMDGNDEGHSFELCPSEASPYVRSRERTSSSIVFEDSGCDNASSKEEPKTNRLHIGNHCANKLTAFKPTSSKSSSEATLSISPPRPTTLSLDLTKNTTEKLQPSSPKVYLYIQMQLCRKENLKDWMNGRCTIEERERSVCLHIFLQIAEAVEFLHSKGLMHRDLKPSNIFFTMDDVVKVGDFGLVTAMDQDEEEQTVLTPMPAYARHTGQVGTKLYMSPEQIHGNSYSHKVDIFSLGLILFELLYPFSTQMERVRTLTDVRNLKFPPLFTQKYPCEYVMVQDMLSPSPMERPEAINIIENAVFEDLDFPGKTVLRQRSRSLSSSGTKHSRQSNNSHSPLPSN
Description: Counterscreen assay for PERK inhibitors: Dose response cell-based high throughput screening assay to measure inhibition of PERK at 6 hours. [Related pubchem assays: 1522, 1416 ]. It counts as functional. (In general: The purpose of a counterscreen is to sort out artefacts and off-target activity.)

In test [2] the target is T1, Eukaryotic translation initiation factor 2-alpha kinase 3. Briefly: Dose response cell-based high-throughput screening assay to measure PERK inhibition. [Related pubchem assays: 1416 ]. Type of test: functional.
The subject of test [3] is HEK293. Briefly: NOD2 signaling inhibitors in MDP-stimulated cells, cell-based, uHTS, luminescence (AID 2001). Type of test: functional. To be noted: Homo sapiens.
Test [4] has as its system HEK293. Briefly: cells. The conditions noted are these: Homo sapiens. Type of test: functional, cell-based.
The test system of test [5] is HEK293. Description: cells. It counts as functional, cell-based. The conditions noted are these: Homo sapiens. The source holds these as a separate data set.
Test [6] has as its system HEK293. Briefly: cells. To be noted: Homo sapiens. Type of test: functional, cell-based. This is another data set of the same source.
The target in test [7] is Nucleotide-binding oligomerization domain-containing protein 2 (Homo sapiens, UniProt Q9HC29). Briefly: NOD2 signaling inhibitors, cell-based, luminescence, uHTS, HEK293 (AID 1566). It counts as functional.
Sequence of Nucleotide-binding oligomerization domain-containing protein 2 (Q9HC29 whole entry, the tested form may be a part): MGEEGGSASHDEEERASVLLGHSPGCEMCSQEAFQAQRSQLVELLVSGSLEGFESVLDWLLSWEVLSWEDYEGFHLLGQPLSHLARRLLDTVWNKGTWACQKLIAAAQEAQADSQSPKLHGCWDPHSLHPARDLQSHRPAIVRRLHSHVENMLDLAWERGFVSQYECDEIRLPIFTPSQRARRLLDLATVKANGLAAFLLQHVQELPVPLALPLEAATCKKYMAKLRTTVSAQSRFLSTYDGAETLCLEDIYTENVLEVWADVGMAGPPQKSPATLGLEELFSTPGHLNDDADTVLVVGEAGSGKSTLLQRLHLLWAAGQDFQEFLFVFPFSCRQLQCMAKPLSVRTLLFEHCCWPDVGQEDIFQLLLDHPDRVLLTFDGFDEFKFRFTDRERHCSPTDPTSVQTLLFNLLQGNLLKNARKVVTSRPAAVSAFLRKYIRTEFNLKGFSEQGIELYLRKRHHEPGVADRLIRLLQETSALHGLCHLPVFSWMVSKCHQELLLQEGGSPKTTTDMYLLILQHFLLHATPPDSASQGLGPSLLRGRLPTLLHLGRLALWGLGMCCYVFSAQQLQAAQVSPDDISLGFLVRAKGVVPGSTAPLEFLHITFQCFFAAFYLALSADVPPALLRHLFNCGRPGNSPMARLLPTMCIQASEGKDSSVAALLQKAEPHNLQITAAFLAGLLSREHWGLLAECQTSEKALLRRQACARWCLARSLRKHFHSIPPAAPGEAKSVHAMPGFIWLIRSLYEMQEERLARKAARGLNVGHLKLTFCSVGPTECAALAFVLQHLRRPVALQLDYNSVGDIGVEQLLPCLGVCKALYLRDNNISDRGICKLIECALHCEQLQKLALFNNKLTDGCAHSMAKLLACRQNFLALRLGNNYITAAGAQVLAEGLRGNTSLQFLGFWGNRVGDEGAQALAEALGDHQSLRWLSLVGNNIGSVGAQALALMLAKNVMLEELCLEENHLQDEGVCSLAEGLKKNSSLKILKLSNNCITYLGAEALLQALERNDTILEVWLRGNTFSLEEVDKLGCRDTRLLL
Test [8] in a line: Luminescence Cell-Based Dose Retest to Confirm Inhibitors of Cancer Stem Cells. [Related pubchem assays (depositor defined):AID2717, AID2721]. It counts as functional. The conditions noted are these: Homo sapiens.
Test [9] relates to HEK293. Description: NOD1 signaling inhibitors, primary screen, cell-based, luminescence, uHTS (AID 1578). The conditions noted are these: Homo sapiens. It counts as functional.
The target of test [10] is Peroxisome proliferator-activated receptor gamma/Nuclear receptor coactivator 3 (Homo sapiens, UniProt P37231). It counts as functional.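 Further: agonist potency for raising coactivator recruitment to the receptor.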
Sequence of Peroxisome proliferator-activated receptor gamma/Nuclear receptor coactivator 3 (P37231 whole entry): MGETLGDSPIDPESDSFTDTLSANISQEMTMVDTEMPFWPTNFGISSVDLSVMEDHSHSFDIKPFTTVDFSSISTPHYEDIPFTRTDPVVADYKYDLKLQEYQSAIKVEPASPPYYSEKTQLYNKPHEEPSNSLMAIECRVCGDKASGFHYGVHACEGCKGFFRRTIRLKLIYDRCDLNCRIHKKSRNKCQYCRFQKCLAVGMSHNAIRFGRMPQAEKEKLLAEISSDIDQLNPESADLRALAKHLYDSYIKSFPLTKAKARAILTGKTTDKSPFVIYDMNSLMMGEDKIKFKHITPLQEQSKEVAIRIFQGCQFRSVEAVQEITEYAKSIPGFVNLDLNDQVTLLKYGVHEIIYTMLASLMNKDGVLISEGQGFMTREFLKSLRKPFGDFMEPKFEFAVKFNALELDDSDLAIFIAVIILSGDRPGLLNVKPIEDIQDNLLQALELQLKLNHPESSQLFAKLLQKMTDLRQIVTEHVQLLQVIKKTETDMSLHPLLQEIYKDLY
Sequence of Peroxisome proliferator-activated receptor gamma/Nuclear receptor coactivator 3 (Q9Y6Q9 whole entry, further chain): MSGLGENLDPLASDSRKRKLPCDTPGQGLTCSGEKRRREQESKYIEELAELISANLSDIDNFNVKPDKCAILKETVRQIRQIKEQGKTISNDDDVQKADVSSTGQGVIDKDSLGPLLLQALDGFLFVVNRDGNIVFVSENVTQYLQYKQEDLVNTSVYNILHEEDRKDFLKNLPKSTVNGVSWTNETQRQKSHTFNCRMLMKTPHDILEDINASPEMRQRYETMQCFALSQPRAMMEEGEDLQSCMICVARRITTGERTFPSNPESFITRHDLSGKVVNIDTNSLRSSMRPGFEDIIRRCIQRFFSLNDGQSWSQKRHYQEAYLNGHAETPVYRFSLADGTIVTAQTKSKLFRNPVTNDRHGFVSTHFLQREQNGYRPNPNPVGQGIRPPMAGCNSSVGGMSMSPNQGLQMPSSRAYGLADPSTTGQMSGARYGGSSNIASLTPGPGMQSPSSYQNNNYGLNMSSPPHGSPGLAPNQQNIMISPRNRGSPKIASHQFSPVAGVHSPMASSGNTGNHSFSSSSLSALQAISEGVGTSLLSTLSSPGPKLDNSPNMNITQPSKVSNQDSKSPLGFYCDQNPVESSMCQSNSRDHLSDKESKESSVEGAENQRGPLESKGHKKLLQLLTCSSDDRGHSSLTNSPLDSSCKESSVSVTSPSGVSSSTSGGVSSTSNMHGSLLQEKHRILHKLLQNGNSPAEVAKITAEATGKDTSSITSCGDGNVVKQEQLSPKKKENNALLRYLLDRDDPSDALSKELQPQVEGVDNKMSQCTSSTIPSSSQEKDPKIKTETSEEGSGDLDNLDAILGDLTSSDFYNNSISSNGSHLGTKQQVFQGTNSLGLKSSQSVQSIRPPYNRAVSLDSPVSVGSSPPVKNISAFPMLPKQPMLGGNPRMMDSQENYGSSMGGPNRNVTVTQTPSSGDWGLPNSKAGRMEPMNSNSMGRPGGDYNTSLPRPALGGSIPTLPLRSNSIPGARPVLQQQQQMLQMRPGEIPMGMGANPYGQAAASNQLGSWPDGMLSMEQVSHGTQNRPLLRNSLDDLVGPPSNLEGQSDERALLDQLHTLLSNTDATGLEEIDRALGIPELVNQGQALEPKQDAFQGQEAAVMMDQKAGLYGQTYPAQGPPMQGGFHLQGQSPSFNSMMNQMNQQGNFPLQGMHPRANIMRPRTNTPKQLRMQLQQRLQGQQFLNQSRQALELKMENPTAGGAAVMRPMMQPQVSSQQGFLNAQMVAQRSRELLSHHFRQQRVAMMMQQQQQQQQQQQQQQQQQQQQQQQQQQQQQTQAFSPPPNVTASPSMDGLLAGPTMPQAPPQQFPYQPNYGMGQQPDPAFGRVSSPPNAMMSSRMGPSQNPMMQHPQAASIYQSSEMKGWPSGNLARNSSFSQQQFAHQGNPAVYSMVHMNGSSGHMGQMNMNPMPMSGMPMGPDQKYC
Test [11] concerns the target Albumin (Bos taurus, UniProt P02769). Description: Counterscreen for inhibitors of T-cell receptor (TCR)-CD3 interaction: Fluorescence-based biochemical high throughput dose response assay to identify inhibitors of T-cell receptor (TCR)-CD3 interaction using a TAMRA-labeled BSA probe. It counts as functional.
Test [12] deals with Peroxisome proliferator-activated receptor gamma/Nuclear receptor coactivator 2 (Homo sapiens, UniProt P37231). It counts as functional.
Sequence of Peroxisome proliferator-activated receptor gamma/Nuclear receptor coactivator 2 (P37231 whole entry): as the sequence (P37231 whole entry) above
Sequence of Peroxisome proliferator-activated receptor gamma/Nuclear receptor coactivator 2 (Q15596 whole entry, further chain): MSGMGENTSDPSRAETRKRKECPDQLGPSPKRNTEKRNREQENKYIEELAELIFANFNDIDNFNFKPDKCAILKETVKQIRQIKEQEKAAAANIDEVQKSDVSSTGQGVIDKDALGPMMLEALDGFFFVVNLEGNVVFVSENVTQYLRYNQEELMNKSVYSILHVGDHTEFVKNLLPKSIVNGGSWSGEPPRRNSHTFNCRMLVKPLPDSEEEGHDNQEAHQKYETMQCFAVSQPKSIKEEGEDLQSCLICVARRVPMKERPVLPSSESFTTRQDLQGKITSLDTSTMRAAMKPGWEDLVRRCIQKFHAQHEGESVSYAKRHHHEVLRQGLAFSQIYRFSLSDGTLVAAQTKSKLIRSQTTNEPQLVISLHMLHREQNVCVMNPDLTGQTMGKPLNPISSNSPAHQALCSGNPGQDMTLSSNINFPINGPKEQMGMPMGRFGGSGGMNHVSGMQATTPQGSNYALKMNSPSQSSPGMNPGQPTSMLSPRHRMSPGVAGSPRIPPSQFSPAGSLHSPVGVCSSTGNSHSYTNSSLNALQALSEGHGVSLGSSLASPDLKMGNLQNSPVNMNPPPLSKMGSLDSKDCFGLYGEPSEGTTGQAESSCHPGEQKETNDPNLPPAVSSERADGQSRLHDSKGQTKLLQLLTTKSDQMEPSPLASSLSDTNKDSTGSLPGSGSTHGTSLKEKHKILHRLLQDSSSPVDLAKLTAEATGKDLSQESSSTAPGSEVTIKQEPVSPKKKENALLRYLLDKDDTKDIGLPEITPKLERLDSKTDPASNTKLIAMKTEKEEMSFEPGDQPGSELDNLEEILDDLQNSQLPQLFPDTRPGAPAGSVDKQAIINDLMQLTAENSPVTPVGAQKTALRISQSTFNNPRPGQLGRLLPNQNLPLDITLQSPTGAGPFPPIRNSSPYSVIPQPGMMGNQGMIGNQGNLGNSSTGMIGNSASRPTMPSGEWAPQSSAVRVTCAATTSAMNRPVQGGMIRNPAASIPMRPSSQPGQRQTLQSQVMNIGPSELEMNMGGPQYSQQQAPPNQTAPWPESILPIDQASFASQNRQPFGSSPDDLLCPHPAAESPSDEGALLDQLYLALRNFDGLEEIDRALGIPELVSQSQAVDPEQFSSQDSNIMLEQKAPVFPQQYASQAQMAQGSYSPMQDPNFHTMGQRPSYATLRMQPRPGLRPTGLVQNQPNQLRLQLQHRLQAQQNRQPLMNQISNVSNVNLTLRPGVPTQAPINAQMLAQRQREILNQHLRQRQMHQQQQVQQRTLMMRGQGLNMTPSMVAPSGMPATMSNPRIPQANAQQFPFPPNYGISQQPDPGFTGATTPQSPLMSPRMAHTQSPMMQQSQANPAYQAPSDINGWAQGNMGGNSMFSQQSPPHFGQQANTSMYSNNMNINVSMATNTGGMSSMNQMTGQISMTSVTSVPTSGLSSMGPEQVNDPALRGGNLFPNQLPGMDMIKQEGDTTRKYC
For test [13], the target named is Peroxisome proliferator-activated receptor gamma/Nuclear receptor coactivator 1 (Homo sapiens, UniProt P37231). Type of test: functional.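 Further: agonist potency as compounds enhance coactivator SRC-1 recruitment to PPARgamma.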
Test [14] can be described thus: cytotoxicity in KRAS-transformed pancreatic duct cells, primary screen, cell-based, fluorescence, HTS (AID 431).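 Further: cell line used: HPDE-C7K.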 To be noted: Homo sapiens. It counts as functional.
Test [15] can be described thus: cytotoxicity in HPDE-C7 cells, cell-based, fluorescence, HTS (AID 430). The conditions noted are these: Homo sapiens. It counts as functional.
Test [16] concerns the target T2, Microphthalmia-associated transcription factor (Homo sapiens, UniProt O75030).
T2 sequence (O75030 whole entry): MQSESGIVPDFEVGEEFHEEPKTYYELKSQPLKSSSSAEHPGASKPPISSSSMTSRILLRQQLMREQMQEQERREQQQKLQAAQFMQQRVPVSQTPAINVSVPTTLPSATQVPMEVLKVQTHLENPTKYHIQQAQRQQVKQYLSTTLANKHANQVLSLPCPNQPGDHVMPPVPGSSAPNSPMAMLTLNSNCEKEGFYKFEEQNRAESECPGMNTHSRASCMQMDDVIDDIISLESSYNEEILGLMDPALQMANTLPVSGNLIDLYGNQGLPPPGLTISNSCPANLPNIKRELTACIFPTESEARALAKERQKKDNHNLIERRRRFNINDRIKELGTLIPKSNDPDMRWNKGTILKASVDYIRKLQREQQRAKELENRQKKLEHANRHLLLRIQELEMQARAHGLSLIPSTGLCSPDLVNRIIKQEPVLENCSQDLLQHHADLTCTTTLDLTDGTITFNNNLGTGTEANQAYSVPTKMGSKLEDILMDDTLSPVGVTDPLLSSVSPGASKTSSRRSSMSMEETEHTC
Briefly: TRPM1 promoter luciferase signal decrease, dose response, MITF inhibitor project, cell-based, SK-MEL-5, cherry-picked, set 3 (AID 493073).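 Further: SK-MEL-5 melanoma cells with luciferase driven by the MITF target TRPM1 promoter.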 It counts as functional.

In test [17] the test system is H9c2. Briefly: cells. The conditions noted are these: Rattus norvegicus, H9c2, Myocardium. Type of test: functional, cell-based.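 Further: confirmatory concentration-response retest of ultra-high-throughput screening hits for modulation of myocardial damage; cell death induced by hydrogen peroxide oxidative stress; compound pretreatment for 60 min then peroxide exposure for 2 h; potency is for protecting the cells against peroxide damage rather than for killing them.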
Test [18] concerns the target Luciferin 4-monooxygenase (Photinus pyralis, UniProt P08659). Description: firefly luciferase enzyme inhibitors, dose response, biochemical, luminescence (AID 1891).
Test [19] deals with T3, High affinity choline transporter 1 (Homo sapiens, UniProt Q9GZV3).
T3 sequence (Q9GZV3 whole entry): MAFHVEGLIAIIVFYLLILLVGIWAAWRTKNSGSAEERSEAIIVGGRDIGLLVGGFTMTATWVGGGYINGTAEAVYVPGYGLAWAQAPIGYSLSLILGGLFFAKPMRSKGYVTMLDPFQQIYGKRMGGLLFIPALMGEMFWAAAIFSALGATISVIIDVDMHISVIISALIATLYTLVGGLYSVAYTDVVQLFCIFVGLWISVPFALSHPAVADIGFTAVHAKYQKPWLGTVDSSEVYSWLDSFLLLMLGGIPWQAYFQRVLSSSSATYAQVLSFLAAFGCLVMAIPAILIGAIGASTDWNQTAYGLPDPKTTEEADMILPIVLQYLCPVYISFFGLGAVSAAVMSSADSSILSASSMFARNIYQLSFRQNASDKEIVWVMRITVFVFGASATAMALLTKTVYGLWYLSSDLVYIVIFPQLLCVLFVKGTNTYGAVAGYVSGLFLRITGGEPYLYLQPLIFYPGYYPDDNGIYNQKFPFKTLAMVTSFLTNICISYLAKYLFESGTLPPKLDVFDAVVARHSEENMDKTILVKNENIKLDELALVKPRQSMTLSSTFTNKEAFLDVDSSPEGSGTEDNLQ
Briefly: CHT inhibitors, dose response, cell-based, 10-point CRC, membrane potential dye (AID 588401).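 Further: membrane potential dye fluorescence of choline-evoked depolarization via CHT.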 It counts as functional.

Test [20] is described as follows: Luminescence Cell-Based Dose Confirmation HTS to Identify Inhibitors of Platelet Dense Granule Release. [Related pubchem assays: 1663 (Primary HTS), 1678 (Summary of Project)]. It counts as functional.
Test [21] has as its target T3, High affinity choline transporter 1. Briefly: CHT inhibitors, dose response, cell-based, 5-point CRC, membrane potential dye (AID 504840). Type of test: functional.
Test [22] addresses T4, Zinc finger protein mex-5 (Caenorhabditis elegans, UniProt Q9XUB2).
T4 sequence (Q9XUB2 whole entry): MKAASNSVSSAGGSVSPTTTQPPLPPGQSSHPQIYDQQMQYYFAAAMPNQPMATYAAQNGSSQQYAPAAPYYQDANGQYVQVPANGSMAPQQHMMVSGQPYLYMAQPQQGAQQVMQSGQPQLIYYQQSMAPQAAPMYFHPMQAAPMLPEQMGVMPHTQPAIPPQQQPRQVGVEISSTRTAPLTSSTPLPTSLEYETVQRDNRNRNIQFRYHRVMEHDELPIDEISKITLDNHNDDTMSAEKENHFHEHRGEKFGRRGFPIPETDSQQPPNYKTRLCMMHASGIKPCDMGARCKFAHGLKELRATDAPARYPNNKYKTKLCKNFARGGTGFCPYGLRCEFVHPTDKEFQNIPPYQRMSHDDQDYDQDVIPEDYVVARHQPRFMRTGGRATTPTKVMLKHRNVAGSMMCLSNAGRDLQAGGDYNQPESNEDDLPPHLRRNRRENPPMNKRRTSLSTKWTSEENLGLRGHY
Briefly: MEX-5/TCR-2 RNA interaction inhibitors, dose response, biochemical, C. elegans, fluorescence polarization (AID 1960).

Test [23] concerns the target NAD-dependent protein deacylase sirtuin-5, mitochondrial (Homo sapiens, UniProt Q9NXA8). Description: SIRT5 desuccinylase inhibitors, dose response, biochemical, fluorescence imaging, cherry-pick, set 5 (AID 720591).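 Further: desuccinylation of succinyl peptide AMC substrate read as fluorescence after trypsin release; potency of inhibitors that lower fluorescence and may act on trypsin instead.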
Test [24] concerns the target T5, RNA-binding protein pos-1 (Caenorhabditis elegans, UniProt G5EF15).
T5 sequence (G5EF15 whole entry): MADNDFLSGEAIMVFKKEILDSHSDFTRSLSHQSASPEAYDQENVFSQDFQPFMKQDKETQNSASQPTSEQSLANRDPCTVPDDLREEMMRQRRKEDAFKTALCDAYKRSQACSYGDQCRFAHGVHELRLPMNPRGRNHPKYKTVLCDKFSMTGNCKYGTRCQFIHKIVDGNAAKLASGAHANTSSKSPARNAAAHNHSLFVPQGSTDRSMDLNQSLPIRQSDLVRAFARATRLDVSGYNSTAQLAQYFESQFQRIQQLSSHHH
Briefly: inhibitors of POS-1/mex-3 RNA binding, dose response, biochemical, fluorescence polarization (AID 1964).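 Further: purified POS-1 fused to maltose binding protein made in E. coli; potency of compounds blocking POS-1 binding to fluorescent RNA.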

For `COc1ccc(C(=O)Cc2ccccc2)cc1OC`, the EC50 in test [1] and in test [2] was > 55.7 µM (not active) throughout.

As to `COc1cc(Br)cc(/C=C/c2ccc3cccc(O)c3n2)c1O`, the IC50 in test [3] is 6.96 µM (inactive); in [4] it was > 20 µM (inactive); in [5] it was > 20 µM (inactive); in test [6], 8.18 µM (active). Further, the EC50 in [7] was > 20 µM (inactive); in test [9], 5.78 µM (active). Besides, in test [8], the AC50 is 1.44 µM (active).

As for `CN(C)S(=O)(=O)c1cccc(NC(=O)COC(=O)c2cc(-c3cccc(Br)c3)nc3ccccc23)c1`, the figures for the EC50 in [10], in test [12] and in test [13] were 21.1 µM (not active), 18.1 µM (not active) and 19.1 µM (not active), respectively. Further, in test [11], the IC50 is > 94.1 µM (inactive).

Consider `Cc1nnc(SCC(=O)NC2CCCC2)s1`, for which the EC50 in test [1] and in test [2] was > 55.7 µM (not active) throughout.

`Cc1ccc(OCc2nnc(SCC(=O)c3ccccc3)n2Cc2ccco2)cc1`: the half-maximal effective concentration (EC50) in [14] and in test [15] was > 20 µM (not active) each time.

`COc1ccc2cc3cc(C(=O)NCCc4ccc(OC)c(OC)c4)oc3nc2c1`: the half-maximal inhibitory concentration (IC50) in test [3] was 5.18 µM (active); in test [4], > 20 µM (inactive); in test [5], 18.9 µM (active); in [6], 4.8 µM (active); in [17], > 79 µM (inactive). Also, the values for the EC50 in test [7] and in test [9] were 7.83 µM (active) and 9.01 µM (active), respectively. In addition, in test [16], the AC50 is 16.2 µM (active).

Take `COc1ccccc1C(=O)C1CCCN(C(=O)CSc2ccccn2)C1` (centres undefined): the EC50 in [10], in test [12] and in test [13] was > 79.4 µM (not active) in each case.

Take `Nc1nc(Cl)nc2c1ncn2[C@@H]1O[C@H](CO)[C@@H](O)[C@H]1O`: the EC50 was > 112 µM (not active) in test [18], > 55.7 µM (not active) in test [1], < 0.701 µM (active) in test [20] and > 55.7 µM (not active) in test [2]. Further, the results for the IC50 in test [19] and in [21] were 0.336 µM (active) and 0.74 µM (active), respectively.

For the compound `O=C(O)c1cc(O)c2c(c1)C(=O)c1cccc(O)c1C2=O` [RHEIN], the EC50 in [14] is 5.19 µM (active); in [15], 19.8 µM (active); in test [22] it was 21.6 µM (active); in test [24], 29.2 µM (active). For the same compound, the AC50 in test [23] is > 30 µM (inactive).
